Results from US11434205B2, “Substituted imidazole carboxylate derivatives and the use thereof” (priority 2018, dated 2022).
Like-named read-outs stand apart in the source and are kept apart here.

Key:
rats [1] = tested on: rats
Experimental: Pharmacological Effects of the Compounds on Continuous Infusion in Rats
Adult male Sprague-Dawley rats with body weight ranging from 250 to 300 gm were selected for continuous infusion test. […] Time to recovery of righting reflex from stopping infusion, and time to fully awake from stopping infusion were recorded.

rats [2] = experiment: Loss of righting reflexes (LORR) assay in rats, ED50 by up and down method; format: in vivo, rat; conditions: tail vein, class symbols; for ED50: Rattus norvegicus
Outline: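 Adult male Sprague-Dawley rats (250-300 g) dosed i.v. via tail vein at 0.1 mL/s. Anesthesia scored as loss of righting reflex lasting >30 s; ED50 derived by up-and-down method.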

rats [3] = format: in vivo, rat; conditions: rats of the MAP/HR figures, 2×ED50, tail vein; same value in min
Outline: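 Rats implanted with telemetry (left ventricular and abdominal aortic catheters, ECG leads) at least one week before recording; compounds given via lateral tail-vein catheter. MAP and HR sampled every 15 s for 30 min before and after dosing to judge hemodynamic stability.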

[4] = tested on: secretion of cortisol, H295R cell line; experiment: cells; format: cell-based; conditions: for EC50: read-out: EC50 (Cortisol)
Experimental: (§1) The Effects of the Compounds on Adrenocortical Function In Vitro Test
(§2) Then secretion of the cortisol and corticosterone in the supernatant, was measured using HPLC-MS/MS method to determine whether the compounds of the present invention had adrenotoxic potential.

[5] = tested on: secretion of corticosterone, H295R cell line; experiment: cells; format: cell-based; conditions: for EC50: read-out: EC50 (Corticosterone)
Experimental: as §1, §2

rats [6] = format: in vivo, rat; conditions: rats of the MAP/HR figures, 2×ED50, tail vein
rats [7] = tested on: rats; remark: listed apart in the source
Experimental: Adult male Sprague-Dawley rats (250-300 g) were selected for the experiment. […] The anesthesia effects of the compounds were assessed in rats using a LORR assay and a period >30 s was considered as an indicator of general anesthesia. Then the up and down method was used to determine 50% effective dose (ED50). The drugs were administered through the tail vein of rats in a volume of 0.6 mL and at a rate of 0.1 mL/s.

rats [8] = experiment: Pharmacological characteristics at equivalent doses (2×ED50) in rats; conditions: 2×ED50, tail vein; for Adverse reactions: Red urine (incidence): DMSO solution (DMSO alone 10/10); for Onset time: time of LORR
Outline: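 Adult male Sprague-Dawley rats (250-300 g, n=8) received each drug at twice its ED50 via tail vein (0.6 mL at 0.1 mL/s). Onset of anesthesia taken as time to LORR.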

[9] = continuous tail vein infusion at 2×MIR, LORR maintained 1 hour, Table E4
[10] = H295R cell line, 0.1-10000 nM, HPLC-MS/MS, Table E3
[11] = continuous tail vein infusion at 2×MIR, LORR maintained 1 hour, Table D4
[12] = H295R cell line, 0.1-10000 nM, HPLC-MS/MS, Table D3
[13] = continuous tail vein infusion at 2×MIR, LORR maintained 1 hour, Table C4

Row | Structure (SMILES) | Onset time (rats [1]; [9]) | Recovery time after stopping infusion (rats [1]; [9]) | Types and incidence of adverse reactions (rats [1]; [9]) | ED50 (mg/kg) (rats [2]) | recovery time of the test animals' righting reflex (rats [3]) | Cortisol as an indicator to determine the presence of inhibition [4, 10] | EC50 [4, 10] | Corticosterone as an indicator to determine the presence of inhibition [5, 10] | EC50 [5, 10] | recovery time of the test animals' righting reflex (rats [6]) | Approximate therapeutic index (rats [7]) | Minimal lethal dose (rats [7]) | Righting reflex duration (rats [8]) | Sedation duration (mg/kg) (rats [8]) | Adverse reactions: Red urine (incidence) (rats [8]) | Onset time (rats [8]) | ED50 (rats [2]) | EC50 ([4]; Homo sapiens, NCI-H295R) | EC50 ([5]; Homo sapiens, NCI-H295R) | other results
1 | C[C@H](c1ccccc1)n1cnc(F)c1C(=O)OCC1CC1 [Compound E8] | 3 to 4 min | 12 to 14 min | Tremor (1/6), Tongue stretching (4/6) | B (B means that the measured ED50 is in the range of 0.10-0.50 mg/kg (excluding 0.10 mg/kg, including 0.50 mg/kg).) | 2.00 min | 0 | > 0.1 µM | 0 | > 0.1 µM | 120 s | >22 | >4 mg/kg | 1.90 ± 0.82 min | 7.12 ± 0.81 | (8/8) | 0.38 ± 0.06 min | – | – | – | –
2 | CC#CCOC(=O)c1cncn1[C@H](C)c1ccccc1 [Compound D18] | – | – | – | – | 5.28 min | – | – | – | – | 317 s | >12 | >3 mg/kg | 1.88 ± 0.95 min | – | urine (8/8) | 0.22 ± 0.11 min | 0.1 to 0.5 mg/kg | > 10 µM | > 10 µM | Onset time (rats [1]; [11]): 3 to 4 min; Recovery time after stopping infusion (rats [1]; [11]): 11 to 13 min; Types and incidence of adverse reactions (rats [1]; [11]): Convulsions (1/6), Tremor (4/6); Cortisol as an indicator to determine the presence of inhibition [4, 12]: 0; Corticosterone as an indicator to determine the presence of inhibition [5, 12]: 0; Adverse reactions: Convulsions (incidence) (rats [8]): Convulsions (1/8), Red
3 | CCC1(COC(=O)c2cncn2[C@H](C)c2ccccc2)COC1 [Compound B9] | – | – | – | – | 1.82 min | – | – | – | – | 109 s | >12 | >18 mg/kg | 1.98 ± 1.21 min | – | 8/8 | 0.39 ± 0.1 min | 0.5 to 1 mg/kg | > 10 µM | > 10 µM | Recovery time after stopping infusion (rats [1]; after 1 hour infusion at 2×MIR): 10 to 13 min; Adverse reactions: Restlessness (incidence) (rats [1]; continuous infusion 2×MIR): 2/6; Adverse reactions: Tremor (incidence) (rats [1]; continuous infusion 2×MIR): 1/6; Onset time (rats [1]; emulsion, continuous infusion at 2×MIR): 2 to 3 min; Cortisol as an indicator to determine the presence of inhibition ([4]; H295R, Table B3): 0; Corticosterone as an indicator to determine the presence of inhibition ([5]; H295R, Table B3): 0; Adverse reactions: Restlessness (incidence) (rats [8]): 1/8
4 | CCCCC(CCCC)OC(=O)c1cncn1[C@H](C)c1ccccc1 [Compound C25] | – | – | – | – | 2.08 min | – | – | – | – | 125 s | >10 | >4 mg/kg | 2.03 ± 1.32 min | – | (8/8) | 0.72 ± 0.20 min | 0.1 to 0.5 mg/kg | > 1 µM | > 1 µM | Onset time (rats [1]; [13]): 3 to 4 min; Recovery time after stopping infusion (rats [1]; [13]): 12 to 15 min; Cortisol as an indicator to determine the presence of inhibition ([4]; H295R, Table C3): 0; Corticosterone as an indicator to determine the presence of inhibition ([5]; H295R, Table C3): 0; Adverse reactions: Tremor (incidence) (rats [8]; animals affected/animals): Tremor (6/8), Red urine
5 | C[C@H](c1ccccc1)n1cnc(F)c1C(=O)OC1(C)COC1 [Compound E38] | 2 to 3 min | 8 to 13 min | Tremor (3/6) | B (B means that the measured ED50 is in the range of 0.10-0.50 mg/kg (excluding 0.10 mg/kg, including 0.50 mg/kg).) | 2.03 min | 0 | > 10 µM | 0 | > 10 µM | 122 s | >20 | >7 mg/kg | 1.96 ± 1.39 min | 4.96 ± 1.66 | (8/8) | 0.25 ± 0.13 min | – | – | – | –
